Reference: patent US8865909B2, “Anti-biofilm agents” (Yissum Research Development Company of the Hebrew …, priority 2008, dated 2014)

Key:
[1] = system: Candida albicans (ATCC 90028); assay: C. albicans biofilm formation, XTT metabolic reduction assay; format: cell-based
Procedure: Candida albicans (ATCC 90028) was used to study the anti-biofilm formation activity of exemplary ABF agents according to embodiments of the present invention.
The C. albicans strain was propagated in yeast peptone dextrose (YPD) medium (1% wt/vol yeast extract, 2% wt/vol peptone, 2% wt/vol dextrose). Batches of medium (30 ml in 125 ml Erlenmeyer flask) were inoculated with material from Sabouraud dextrose agar (SDA) plates containing freshly grown C. albicans and incubated overnight in an orbital shaker (200 rpm) at 30° C. under aerobic conditions. C. albicans grew in the budding-yeast phase under these conditions. Cells were harvested and washed twice in sterile phosphate-buffered saline (PBS) (Oxoid Ltd, Basingstoke, Hampshire, UK). Thereafter the cells were resuspended in RPMI 1640 supplemented with L-glutamine and buffered with morpholinepropanesulfonic acid (MOPS) (Sigma Chemical Co., St. Louis, Mo.) and adjusted to the desired density after counting with a hematocytometer.
Biofilms of C. albicans were formed in the wells on commercially available presterilized, polystyrene, flat-bottomed, 96-well microtiter plates (Nunc—Nunclon™ Surface, Roskilde, Denmark). Biofilms were formed by pipetting 100 μl of the standardized cell suspensions (5×10^6 cells/ml) into selected wells of the microtiter plate and incubating the plate for 72 hours at 37° C. After 24 hours and 48 hours of the biofilm formation, the medium was replaced by fresh RPMI 1640 medium.
Working concentrations of farnesol (300 μM; 66 μg/ml) and the exemplary ABF agents TZD10 and TZD11 (200 μg/ml) were prepared in RPMI 1640 by using the stock solutions. […]
The effect of the compounds on biofilm formation was measured by using a metabolic reduction assay (XTT kit). […] The colorimetric change (a reflection of the metabolic activity of the biofilm) was measured with a microtiter plate reader at 492 nm. The anti-biofilm formation activity effect of the tested agents was expressed as the percentage of the optical density (OD) of the treated wells compared to that of control (untreated) wells for the XTT assays. […]

[2] = system: Candida albicans (ATCC 90028) preformed biofilm; assay: C. albicans preformed (mature) biofilm, XTT reduction assay; format: cell-based; settings: for activity on the preformed biofilm: 24 hours on 48-hour biofilm
Procedure: The effect of the compounds on biofilm formation was measured by using a metabolic reduction assay (XTT kit). Briefly, 100 μl of the XTT reaction solution (Biological Industries, Israel Beit Haemek Ltd.) was added to each well, and microtiter plate was then incubated in the dark for 2 hours at 37° C. The colorimetric change (a reflection of the metabolic activity of the biofilm) was measured with a microtiter plate reader at 492 nm. The anti-biofilm formation activity effect of the tested agents was expressed as the percentage of the optical density (OD) of the treated wells compared to that of control (untreated) wells for the XTT assays. Light microscopic examination of biofilms formed in microtiter plates was performed in parallel by using an inverted microscope.
C. albicans biofilm was formed during 48 hours at 37° C. on the surfaces of microtiter plates by using the protocol described hereinabove, and the tested ABF agents were then added to the preformed biofilm. Following biofilm formation the spent medium and the nonadherent cells were removed by washing the biofilms three times in sterile PBS. The tested compounds, the ABF agent at 25, 50, 100 μg/ml, fluconazole at 31.25, 62.5, 125 μg/ml, in fresh RPMI 1640—farnesol at 150 μM (33 μg/ml), were added to selected wells of the microtiter plates. In addition, the effect of combination of farnesol (33 μg/ml) with fluconazole (31.25 μg/ml) and the ABF agent (25 or 50 μg/ml) with fluconazole (31.25 μg/ml) was examined on preformed biofilms. The plates were then incubated for 24 hours at 37° C. The effect of the compounds on pre-formed biofilms was then estimated by using the XTT reduction assay as described hereinabove.

With `CC(C)=CCC/C(C)=C/CC/C(C)=C/CO` [farnesol] the “reduction in the metabolic activity of the yeast cells (XTT)” value ([1]; 33 μg/ml, 72 hours) was 43%, the “additive effect of combination with fluconazole compared to farnesol alone” value ([1]; removed after 48 hours, fluconazole 31.25 μg/ml for another 24 hours) was “did not show any additive effect” and the “activity on the preformed biofilm” value [2] was “no activity”. For the same molecule, the “additive anti-biofilm effect of adding fluconazole” value ([2]; farnesol 33 μg/ml + fluconazole 31.25 μg/ml, pre-formed biofilm) was “no additive anti-biofilm effect”.

For `OC(Cn1cncn1)(Cn1cncn1)c1ccc(F)cc1F` [fluconazole], the “reduction in the metabolic activity (XTT), biofilm formation” value ([1]; 31-125 μg/ml, 72 hours) was “up to 77%” and the “activity on the preformed biofilm” value [2] was “no activity”.
